Measured values taken from patent US11007243B2, “Enzyme-assisted supercritical extraction of nigella sativa seeds” (priority 2016, dated 2021).
Like-named read-outs stand apart in the source and are kept apart here.

Experiments:
rabbits = conditions: cited from earlier work
[1] = Roghani et al. 2012; cited from earlier work
mice = conditions: cited from earlier work
rats = conditions: cited from earlier work
[2] = test system: Albino Wistar rats injected with Ibotenic acid; test: Open field test in ibotenic acid (I.C.V.) model; format: in vivo; conditions: IBO i.c.v., oral treatment 30 days, FIG. 2b
Description: Ibotenic acid (IBO) is a non-selective glutamate receptor […] which can be used as a powerful neurotoxin to produce anxiety, stress, depression and dementia. It is injected intra cerebro-ventricularly as a brain lesioning agent specially to destroy the neuronal cells in hippocampal and cortical region responsible for fear, anxiety and depression, as well as learning and memory. […] The NMDA subtype of glutamate receptor is an important mediator of synaptic plasticity and plays a central role in the neurobiological mechanisms of emotionality including fear, anxiety and depression, as well as learning and memory (Barkus et al., European Journal of Pharmacology, 2010; 626(1), 49-56).
Ibotenic acid is administered to Albino Wistar rats at the dose of 5 μg/μL/intracerebroventricularly using Hamilton syringe at the rate of 0.1 μL/min. The animals were then treated continuously for 30 days with Black cumin extracts (BCE) orally at various dosages (thymoquinone content) and evaluated for its anxiolytic properties using elevated plus maze and modified open field apparatus. The various black cumin extracts (BCE) dosages evaluated in the study are outlined in Table-3.
The open field test is conventionally designed to assess the state of anxiety, locomotor and exploratory activity. […] Results were statistically analysed by one-way ANOVA followed by Tukey's multiple comparison test.

U373-MG cell line = test: SRB growth assay on U373 MG glial cell line; format: cell-based; conditions: Homo sapiens, read-out: GI 50 (concentration causing 50% inhibition of cell growth)
IMR-32 cell line = test: SRB growth assay on IMR-32 neuronal cell line; format: cell-based; conditions: Homo sapiens, IMR-32, read-out: GI 50 (concentration causing 50% inhibition of cell growth)

CC1=CC(=O)C(C(C)C)=CC1=O [TQ, 2-isopropyl-5-methyl-1,4-benzoquinone]
LD50 (rabbits): 2400 mg/kg
Memory improvement [1]: memory improvement in a dose dependent manner
LD50 (mice; intra-peritoneal injection): 104.7 mg/kg
LD50 (mice; oral ingestion): 870.9 mg/kg
LD50 (rats; intra-peritoneal injection): 57.5 mg/kg
LD50 (rats; oral ingestion): 794.3 mg/kg

CC12CC3CC(C)(C1)CC(N)(C3)C2 [Memantine]
Rearing behaviour (rearing frequency), open field [2]: no significant difference between the BCE4 treated group, memantine group and the control group

COc1cccc2c1C(=O)c1c(O)c3c(c(O)c1C2=O)C[C@@](O)(C(=O)CO)C[C@@H]3O[C@H]1C[C@H](N)[C@H](O)[C@H](C)O1 [Adriamycin]
GI50 (U373-MG cell line): < 10 µg/mL
GI50 (IMR-32 cell line): < 10 µg/mL
